According to PMC10687119, “Quaternary Ammonium Salts of Cationic Lipopeptides with Lysine Residues — Synthesis, Antimicrobial, Hemolytic and Cytotoxic Activities” (Probiotics and Antimicrobial Proteins, 2023):
≈ marks a conversion by molar mass, not a printed value. Where a SMILES comes first, the peptide text is derived from it. [ ]: non-standard residue; d: D form. The star is where a group is joined. Lys(Me3) = C[N+](C)(C)CCCC[C@H](N)C(=O)O; Stearoyl = CCCCCCCCCCCCCCCCCC(=O)*; Palmitoyl = CCCCCCCCCCCCCCCC(=O)*; Myristoyl = CCCCCCCCCCCCCC(=O)*

Experiments:
[1] = tested on: human keratinocyte cell line (HaCaT); type: cell-based; conditions: 24 h
Description: The immortalized human keratinocyte cell line (HaCaT), obtained from CLS (Cell Line Service, Germany) was cultured in DMEM-high glucose (Dulbecco’s Modified Eagle Medium) supplemented with 10% fetal bovine serum, 2 mM L-glutamine, 100 U/mL penicillin and 100 μg/mL streptomycin (Sigma-Aldrich; Merck KGaA) at 37 °C in a humidified atmosphere with 5% CO2. Cells were trypsinized, and the medium was renewed 2–3 times per week. The cytotoxicity of compounds was assessed by colorimetric CellTilter 96® Aqueous One Solution Cell Proliferation Assay (Promega, USA), containing a tetrazolium compound according to the manufacturer’s instructions. In brief, 7 × 10^3 HaCaT cells per well were plated on 96-well plates and incubated per night to adhere to the cultured dishes. After that time, different concentrations of the tested compounds ranging from 512 to 1 μg/mL were applied to the wells. Every compound was medium-soluble at 37 °C; thus, the non-treated cells were negative control. Serial dilutions of the tested compounds were always prepared before use. Cells were incubated with drugs for 24 h, and then, 20 μL of the CellTiter 96®AqueousOne Solution Reagent was added to each well containing treated cells in 100 µl of culture medium. After 4 h of incubation at 37 °C, the absorbance at 490 nm was recorded using a microplate reader (Epoch, BioTek Instruments, USA). The quantity of formazan product as measured by the amount of 490 nm absorbance is directly proportional to the number of living cells in culture. Benzalkonium chloride (Sigma-Aldrich, Germany) was used as reference compound. At least three independent experiments with two replicates were conducted for each concentration of a compound, and the IC50 values were calculated using GraphPad Prism 8 software.

C. glabrata ATCC 15126 = type: cell-based, Candida glabrata; conditions: ATCC 15126, 24 h
Description: (§1) The Acinetobacter baumannii ATCC BAA-1605, Enterococcus faecium ATCC 700221, Klebsiella aerogenes ATCC 13048, Klebsiella pneumoniae ATCC 700603, Pseudomonas aeruginosa ATCC 9027, Staphylococcus aureus ATCC 33591, Candida glabrata ATCC 15126 strains were acquired from the American Type Culture Collection (ATCC, Manassas, USA). All the strains were stored at −80 °C in Roti-Store cryo vials (Carl Roth GmbH, Germany) and before the tests were transferred into fresh Mueller–Hinton broth (MHB, Becton Dickinson, Poland) for bacteria or RPMI-1640 (Sigma-Aldrich, Germany) for fungi and incubated for 24 h at 37 °C. Then, the cultures were cultured on the Mueller–Hinton agar (BioMaxima, Poland) or Sabouraud dextrose agar (SDA, BioMaxima) plates, respectively, and incubated as just mentioned. For microbiological assays, a minimum of three to five well-isolated colonies of the same morphological type were carefully picked from the agar cultures. These colonies were transferred with sterile loop into fresh microbiological medium and incubated with shaking (100 rpm) at 37 °C until they reached logarithmic phase of growth. Cell densities for all assays were adjusted through spectrophotometric measurements (Multiskan GO Microplate Spectrophotometer, Thermo Fisher Scientific, Finland) at 600 and 530 nm for bacteria and fungi, respectively.
(§2) The MICs were determined by broth microdilution method according to the Clinical and Laboratory Standard Institute guidelines. For this purpose, initial inoculums of bacteria (5 × 10^5 CFU/mL) in MHB and yeasts (2 × 10^3 CFU/mL) in RPMI-1640 with 2% D-glucose were exposed to the ranging concentration of lipopeptides (1–512 μg/mL) and incubated at 37 °C for 18 h and 24 h, respectively. The experiments were conducted on 96-well microtiter polystyrene plates (Kartell, Italy). The growth was assessed visually after incubation and the MIC was assumed as the lowest peptide concentration at which a noticeable growth of microorganisms was inhibited. Benzalkonium chloride (Sigma-Aldrich, Germany) was used as reference compound. All experiments were conducted in triplicate.

S. aureus ATCC 33591 = type: cell-based, Staphylococcus aureus; conditions: ATCC 33591, 18 h
Description: as §1, §2

E. faecium ATCC 700221 = type: cell-based, Enterococcus faecium; conditions: ATCC 700221, 18 h
Description: as §1, §2

[2] = tested on: K. pneumoniae ATCC 700603; type: cell-based, Klebsiella pneumoniae; conditions: ATCC 700603, 18 h
Description: as §1, §2

K. aerogenes ATCC 13048 = type: cell-based, Klebsiella aerogenes; conditions: ATCC 13048, 18 h
Description: as §1, §2

P. aeruginosa ATCC 9027 = type: cell-based, Pseudomonas aeruginosa; conditions: ATCC 9027, 18 h
Description: as §1, §2

[3] = tested on: A. baumannii ATCC BAA 1605; type: cell-based, Acinetobacter baumannii; conditions: ATCC BAA 1605, 18 h
Description: as §1, §2

[4] = tested on: human red blood cells (RBCs); type: cell-based; conditions: red cells of human
Description: The hemolysis assay was conducted using a procedure described previously. For this purpose, human red blood cells (RBCs) isolated from K2EDTA Single Donor Human Whole blood (Innovative Research, Inc, MI, USA) were rinsed with Phosphate-buffer saline (PBS, pH 7.4±0.05, composition - KCl 2.7 mM, NaCl 140 mM, phosphate 10mM; AppliChem GmbH, Germany) by centrifugation for 10 min at 800 × g. This process was repeated 3 times and the RBCs were resuspended in PBS. Then, the stock solution of RBCs was added to the serial dilution of lipopeptides on 96-well polystyrene plates to reach a final volume of 100 μL with a 4% concentration of erythrocytes (v/v) and a concentration range of 1-512 μg/mL of tested compounds. The control wells for 0% and 100% hemolysis consisted of RBCs suspended in PBS and 1% of Triton X-100 (Sigma-Aldrich, Germany), respectively. Benzalkonium chloride (Sigma-Aldrich, Germany) was used as reference compound. Subsequently, the plates were incubated for 60 min at 37 °C and then centrifuged at 800 × g for 10 min at 4 °C (Sorvall ST […] Centrifuge, Thermo Scientific). The supernatant was carefully […] to new microtiter plates. The release of hemoglobin was monitored absorbance measurements at 540 nm (MultiskanTM GO Microplate Spectrophotometer, Thermo Scientific). All experiments were conducted in triplicate. HC50 was calculated using an ic50.tk tool.

Row | Compound | IC50 [1] [µg/mL] | MIC (C. glabrata ATCC 15126) [µg/mL] | MIC (S. aureus ATCC 33591) [µg/mL] | MIC (E. faecium ATCC 700221) [µg/mL] | MIC [2] [µg/mL] | MIC (K. aerogenes ATCC 13048) [µg/mL] | MIC (P. aeruginosa ATCC 9027) [µg/mL] | MIC [3] [µg/mL] | HC50 [4] [µg/mL]
1 | CCCCCCCCCCCCCCCC(=O)N[C@@H](CCCC[N+](C)(C)C)C(=O)N[C@@H](CCCC[N+](C)(C)C)C(=O)N[C@@H](CCCC[N+](C)(C)C)C(N)=O [Peptide 3Pq, C16-K(Me3)^+K(Me3)^+K(Me3)^+-NH2] | >512 | >512 | 256 | 32 | >512 | 512 | >512 | >512 | >512
2 | CCCCCCCCCCCCCC(=O)N[C@@H](CCCC[N+](C)(C)C)C(N)=O [Peptide 1Mq, C14-K(Me3)^+-NH2] | 24.81 ± 3.88 | 32 | 32 | 32 | >512 | 256 | 128 | 128 | 88.25 ± 1.57
3 | CCCCCCCCCCCCCC(=O)N[C@@H](CCCC[N+](C)(C)C)C(=O)N[C@@H](CCCC[N+](C)(C)C)C(=O)N[C@@H](CCCC[N+](C)(C)C)C(=O)N[C@@H](CCCC[N+](C)(C)C)C(N)=O [Peptide 4Mq, C14-K(Me3)^+K(Me3)^+K(Me3)^+K(Me3)^+-NH2] (Myristoyl-[Lys(Me3)][Lys(Me3)][Lys(Me3)][Lys(Me3)]-NH2) | >512 | >512 | >512 | 128 | >512 | >512 | >512 | >512 | >512
4 | CCCCCCCCCCCCCC(=O)N[C@@H](CCCCN)C(N)=O [Peptide 1M, C14-K-NH2] | 4.33 ± 1.12 (≈ 12.2 µM) | >512 | 16 (≈ 45 µM) | 16 (≈ 45 µM) | >512 | >512 | >512 | >512 | 477.61 ± 28.02
5 | CCCCCCCCCCCCCC(=O)N[C@@H](CCCC[N+](C)(C)C)C(=O)N[C@@H](CCCC[N+](C)(C)C)C(=O)N[C@@H](CCCC[N+](C)(C)C)C(N)=O [Peptide 3Mq, C14-K(Me3)^+K(Me3)^+K(Me3)^+-NH2] | >512 | >512 | >512 | 256 | >512 | >512 | >512 | >512 | >512
6 | CCCCCCCCCCCCCC(=O)N[C@@H](CCCCN)C(=O)N[C@@H](CCCCN)C(N)=O [Peptide 2M, C14-KK-NH2] | 32.49 ± 4.84 (≈ 67.2 µM) | 256 (≈ 529 µM) | 16 (≈ 33.1 µM) | 32 (≈ 66.2 µM) | >512 | 512 (≈ 1060 µM) | 128 (≈ 265 µM) | 512 (≈ 1060 µM) | 345.21 ± 12.80
7 | CCCCCCCCCCCCCC(=O)N[C@@H](CCCCN)C(=O)N[C@@H](CCCCN)C(=O)N[C@@H](CCCCN)C(=O)N[C@@H](CCCCN)C(N)=O [Peptide 4M, C14-KKKK-NH2] (Myristoyl-KKKK-NH2) | 252.20 ± 36.68 (≈ 341 µM) | 512 (≈ 692 µM) | 32 (≈ 43.2 µM) | 16 (≈ 21.6 µM) | >512 | 256 (≈ 346 µM) | 256 (≈ 346 µM) | 512 (≈ 692 µM) | >512
8 | CCCCCCCCCCCCCCCC(=O)N[C@@H](CCCC[N+](C)(C)C)C(=O)N[C@@H](CCCC[N+](C)(C)C)C(N)=O [Peptide 2Pq, C16-K(Me3)^+K(Me3)^+-NH2] | 99.62 ± 9.65 | 64 | 16 | 16 | 512 | 512 | 512 | 128 | 133.32 ± 6.27
9 | CCCCCCCCCCCCCCCC(=O)N[C@@H](CCCC[N+](C)(C)C)C(=O)N[C@@H](CCCC[N+](C)(C)C)C(=O)N[C@@H](CCCC[N+](C)(C)C)C(=O)N[C@@H](CCCC[N+](C)(C)C)C(N)=O [Peptide 4Pq, C16-K(Me3)^+K(Me3)^+K(Me3)^+K(Me3)^+-NH2] (Palmitoyl-[Lys(Me3)][Lys(Me3)][Lys(Me3)][Lys(Me3)]-NH2) | >512 | >512 | 512 | 32 | >512 | 512 | >512 | >512 | >512
10 | CCCCCCCCCCCCCCCCCC(=O)N[C@@H](CCCC[N+](C)(C)C)C(=O)N[C@@H](CCCC[N+](C)(C)C)C(=O)N[C@@H](CCCC[N+](C)(C)C)C(N)=O [Peptide 3Sq, C18-K(Me3)^+K(Me3)^+K(Me3)^+-NH2] | 474.64 ± 29.06 | 128 | 64 | 16 | 256 | 64 | 512 | 128 | 385.50 ± 71.51
11 | CCCCCCCCCCCCCCCCCC(=O)N[C@@H](CCCC[N+](C)(C)C)C(=O)N[C@@H](CCCC[N+](C)(C)C)C(=O)N[C@@H](CCCC[N+](C)(C)C)C(=O)N[C@@H](CCCC[N+](C)(C)C)C(N)=O [Peptide 4Sq, C18-K(Me3)^+K(Me3)^+K(Me3)^+K(Me3)^+-NH2] (Stearoyl-[Lys(Me3)][Lys(Me3)][Lys(Me3)][Lys(Me3)]-NH2) | >512 | 512 | 64 | 16 | 256 | 64 | 512 | 256 | >512
